# From ChEMBL document CHEMBL1201862, “PubChem BioAssay data set” (2004)
# The source made the active and inactive calls.
# Experiments:
# [1] = target: Induced myeloid leukemia cell differentiation protein Mcl-1 (Homo sapiens, UniProt Q07820); assay: MCL1-BIM BH3 interaction inhibitors, dose response, biochemical, fluorescence polarization, BIM-BH3 peptide, 1536-well (AID 2217)
# Bcl-2-like protein 1 = Bcl-2-like protein 1 (Homo sapiens, UniProt Q07817); assay: BCL-XL inhibitors, dose response, selectivity assay for MCL1 inhibitor project, biochemical, fluorescence polarization, 1536-well (AID 2218)
# [2] = target: DNA dC->dU-editing enzyme APOBEC-3A (Homo sapiens, UniProt P31941); assay: Dose Response confirmation of small molecule APOBEC3A DNA Deaminase Inhibitors via a fluorescence-based single-stranded DNA deaminase assay. [Related pubchem assays (depositor defined):AID493011, AID493024]; assay type: functional
# [3] = target: DNA dC->dU-editing enzyme APOBEC-3G (Homo sapiens, UniProt Q9HC16); assay type: functional;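 also: Dose-response counterscreen measuring inhibition of APOBEC3G DNA deaminase activity, run while confirming APOBEC3A inhibitors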
# Caspase-6 = Caspase-6 (Homo sapiens, UniProt P55212); assay: human caspase-6 inhibitors, dose response, biochemical, VEID-R110 fluorescence, cherry-pick (AID 720632)
# Chain of Caspase-6 (P55212 24-179 limits assumed): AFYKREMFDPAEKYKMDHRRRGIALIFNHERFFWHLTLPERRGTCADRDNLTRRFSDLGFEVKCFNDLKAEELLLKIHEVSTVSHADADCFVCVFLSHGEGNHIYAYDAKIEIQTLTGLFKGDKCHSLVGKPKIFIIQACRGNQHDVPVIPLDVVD
# Chain of Caspase-6 (P55212 194-293 limits assumed): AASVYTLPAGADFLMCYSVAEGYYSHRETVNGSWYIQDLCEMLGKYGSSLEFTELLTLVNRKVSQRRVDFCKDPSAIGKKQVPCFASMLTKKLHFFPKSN
# Caspase-7 = Caspase-7 (Homo sapiens, UniProt P55210); assay: human caspase-7 inhibitors, dose response, selectivity assay for caspase-6 inhibitor project, biochemical, DEVD-R110 fluorescence, cherry-pick (AID 743295)
# [4] = inhibitors of firefly luciferase expression or activity, dose response, H4 neuroglioma cells, luminescence (AID 1990); assay type: functional, cell-based
# [5] = insulin promoter down-regulators in MIN6 cells, imaging, high-content screening, mouse beta cells (AID 1628); assay type: functional
# BJ [6] = assay: cytotoxicity toward BJ-TERT fibroblasts, dose response, cell-based, RAS-independent, luminescence (AID 1933); assay type: functional; settings: Homo sapiens
# [7] = Luminescence Cell-Based Dose Response HTS to Identify Inhibitors of 5'UTR Stem-Loop Driven Prion Protein mRNA Translation in H4 Neuroglioblastoma Cells. [Related pubchem assays: 1827 (Project Summary), 1813 (Primary HTS)]; assay type: functional
# [8] = cytotoxicity in MIN6 insulinoma cells, dose response, cytotoxicity control, cell-based, mouse insulinoma (AID 2122); assay type: functional;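 also: confirmatory high-throughput counterscreen run to flag cytotoxic compounds; mouse MIN-6 beta cells carrying an insulin promoter eGFP reporter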
# [9] = target: T1, Heat shock factor protein 1 (Mus musculus, UniProt P38532); assay: inhibition of MG132-induced HSE-luciferase signal, confirmation, cell-based, NIH3T3, luminescence, dose retest (AID 2382); assay type: functional;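 also: NIH3T3 fibroblasts with HSF1-driven luciferase reporter stressed by proteasome inhibitor MG132; luminescence from HSF1-driven luciferase expression after 8 hours of MG132 stress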
# T1 sequence (P38532 whole entry): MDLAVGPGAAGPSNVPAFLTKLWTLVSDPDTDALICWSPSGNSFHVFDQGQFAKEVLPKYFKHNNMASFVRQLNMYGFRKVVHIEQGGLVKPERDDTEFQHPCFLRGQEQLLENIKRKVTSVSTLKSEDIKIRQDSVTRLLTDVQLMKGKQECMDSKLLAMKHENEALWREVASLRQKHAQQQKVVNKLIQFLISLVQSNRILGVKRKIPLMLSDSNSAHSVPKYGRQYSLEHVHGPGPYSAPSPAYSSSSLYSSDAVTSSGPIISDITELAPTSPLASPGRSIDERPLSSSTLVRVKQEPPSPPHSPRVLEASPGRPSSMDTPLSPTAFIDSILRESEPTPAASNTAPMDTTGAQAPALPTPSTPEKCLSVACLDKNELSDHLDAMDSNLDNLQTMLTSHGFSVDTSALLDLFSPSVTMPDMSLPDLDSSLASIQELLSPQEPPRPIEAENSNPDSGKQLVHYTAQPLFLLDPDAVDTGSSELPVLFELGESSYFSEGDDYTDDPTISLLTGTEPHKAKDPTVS
# [10] = inhibitors of SNCA 5'UTR-driven reporter translation, confirmation, H4 neuroglioma cells, luminescence (AID 1988); assay type: functional, cell-based
# BJ [11] = assay: cells; assay type: functional, cell-based; settings: Homo sapiens
# BJ [12] = assay: cytotoxicity toward BJ-TERT-LT-ST fibroblasts, dose response, cell-based, RAS-independent, luminescence (AID 1935); assay type: functional; settings: Homo sapiens;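 also: BJ fibroblasts immortalized with TERT plus LT and ST oncogenes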
# [13] = cytotoxicity toward DRD oncogenic fibroblasts, dose response, cell-based, non-viral oncogenic, luminescence (AID 1934); assay type: functional; settings: Homo sapiens
# [14] = target: T2, Type-1 angiotensin II receptor (Homo sapiens, UniProt P30556); assay: AT1 receptor agonists, dose response, selectivity assay for APJ receptor agonist project, cell-based, uHTS hits (AID 488865); assay type: functional;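 also: beta-arrestin recruitment to AT1 measured by enzyme fragment complementation luminescence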
# T2 sequence (P30556 whole entry): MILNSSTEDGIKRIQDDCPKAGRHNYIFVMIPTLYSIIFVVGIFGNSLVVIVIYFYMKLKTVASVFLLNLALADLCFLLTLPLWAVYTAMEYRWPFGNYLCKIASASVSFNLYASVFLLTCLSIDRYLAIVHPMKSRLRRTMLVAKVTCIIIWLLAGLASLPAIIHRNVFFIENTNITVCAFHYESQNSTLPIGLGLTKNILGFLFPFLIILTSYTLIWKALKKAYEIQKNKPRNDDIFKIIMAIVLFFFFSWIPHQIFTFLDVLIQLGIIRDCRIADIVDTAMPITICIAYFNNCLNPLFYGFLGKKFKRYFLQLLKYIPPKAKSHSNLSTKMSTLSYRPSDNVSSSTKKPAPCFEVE
# X-box-binding protein 1 = X-box-binding protein 1 (Homo sapiens, UniProt P17861); assay type: functional, Cricetulus griseus;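 also: confirmatory dose-response counter-screen serving a CHOP assay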
# Chain of X-box-binding protein 1 (P17861 whole entry): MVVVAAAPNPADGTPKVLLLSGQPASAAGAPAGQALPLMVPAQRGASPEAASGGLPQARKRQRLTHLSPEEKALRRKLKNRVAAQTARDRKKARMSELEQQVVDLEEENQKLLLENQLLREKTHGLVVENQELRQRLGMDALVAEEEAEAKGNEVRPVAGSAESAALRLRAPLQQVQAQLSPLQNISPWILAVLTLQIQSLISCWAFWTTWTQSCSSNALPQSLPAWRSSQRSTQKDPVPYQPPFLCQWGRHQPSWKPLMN
# BJ [15] = assay: cytotoxicity toward Ras-transformed BJeLR fibroblasts, dose response, cell-based, alamar blue fluorescence, cherrypicked samples (AID 2631); assay type: functional; settings: Homo sapiens;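 also: confirmatory dose-response assay in RAS-dependent BJ fibroblasts engineered with TERT, LT and ST, with cytotoxicity read by fluorescence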
# INS1 = assay: beta cell apoptosis inhibitors, cytokine rescue, dose response, luminescence, retest (AID 449756); assay type: functional, cell-based; settings: Rattus norvegicus;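 also: cell death triggered by IL-1 beta plus TNF-alpha plus IFN-gamma mixture; protective hits raise ATP signal compared with cytokine alone wells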
# [16] = NIH-3T3 fibroblast cytotoxicity, dose response, cytotoxicity control, cell-based, fluorescence, Alamar Blue, secondary assay (AID 2327); assay type: functional;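 also: NIH-3T3 mouse fibroblasts cultured with fluconazole at 8 µg/mL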
# cells [17] = assay type: functional, cell-based
# [18] = C. albicans growth with fluconazole, confirmation, fluorescence, retest (AID 2467); assay type: functional, cell-based
# cells [19] = assay type: functional, cell-based; remark: listed apart in the source
# [20] = Luminescence Cell-Based Dose Retest to Confirm Inhibitors of Cancer Stem Cells. [Related pubchem assays (depositor defined):AID2717, AID2721]; assay type: functional; settings: Homo sapiens
# [21] = target: E3 ubiquitin-protein ligase Mdm2/Protein Mdm4 (Homo sapiens, UniProt O15151+Q00987); assay: Mdm2-MdmX interaction inhibitors, dose response, luminescence detection (AID 504593); assay type: functional
# Coagulation factor XII [22] = target: T3, Coagulation factor XII (Homo sapiens, UniProt P00748); assay: Factor XIIa Dose Response Confirmation from Single Well HTS. [Related pubchem assays (depositor defined):AID701]; assay type: functional
# T3 sequence (P00748 whole entry): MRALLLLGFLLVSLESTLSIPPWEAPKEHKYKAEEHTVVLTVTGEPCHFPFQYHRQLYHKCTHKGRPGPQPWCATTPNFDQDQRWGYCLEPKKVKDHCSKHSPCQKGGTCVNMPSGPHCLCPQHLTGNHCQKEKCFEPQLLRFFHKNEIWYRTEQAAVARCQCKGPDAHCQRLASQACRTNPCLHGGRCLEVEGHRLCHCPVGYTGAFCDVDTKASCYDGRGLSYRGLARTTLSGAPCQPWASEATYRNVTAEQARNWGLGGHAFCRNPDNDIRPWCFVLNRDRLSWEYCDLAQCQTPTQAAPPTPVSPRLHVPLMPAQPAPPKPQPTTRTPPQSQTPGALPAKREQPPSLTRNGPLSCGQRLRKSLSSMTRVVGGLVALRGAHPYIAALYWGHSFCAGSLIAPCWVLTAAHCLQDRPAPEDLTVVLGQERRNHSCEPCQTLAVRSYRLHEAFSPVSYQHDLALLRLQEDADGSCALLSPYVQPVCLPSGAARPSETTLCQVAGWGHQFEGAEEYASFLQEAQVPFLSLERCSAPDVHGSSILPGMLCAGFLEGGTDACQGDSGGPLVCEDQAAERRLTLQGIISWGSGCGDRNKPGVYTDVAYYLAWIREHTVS
# [23] = target: T4, Voltage-dependent T-type calcium channel subunit alpha-1H (Homo sapiens, UniProt O95180); assay: Inhibitors of T-Type Calcium Channels (Cav3.2 HEK whole cell CRC). [Related pubchem assays (depositor defined):AID449739, AID463087, AID489005, AID493021, AID493022, AID493023, AID493041, AID504579, AID504584]; assay type: functional, cell-based, HEK293
# T4 sequence (O95180 whole entry): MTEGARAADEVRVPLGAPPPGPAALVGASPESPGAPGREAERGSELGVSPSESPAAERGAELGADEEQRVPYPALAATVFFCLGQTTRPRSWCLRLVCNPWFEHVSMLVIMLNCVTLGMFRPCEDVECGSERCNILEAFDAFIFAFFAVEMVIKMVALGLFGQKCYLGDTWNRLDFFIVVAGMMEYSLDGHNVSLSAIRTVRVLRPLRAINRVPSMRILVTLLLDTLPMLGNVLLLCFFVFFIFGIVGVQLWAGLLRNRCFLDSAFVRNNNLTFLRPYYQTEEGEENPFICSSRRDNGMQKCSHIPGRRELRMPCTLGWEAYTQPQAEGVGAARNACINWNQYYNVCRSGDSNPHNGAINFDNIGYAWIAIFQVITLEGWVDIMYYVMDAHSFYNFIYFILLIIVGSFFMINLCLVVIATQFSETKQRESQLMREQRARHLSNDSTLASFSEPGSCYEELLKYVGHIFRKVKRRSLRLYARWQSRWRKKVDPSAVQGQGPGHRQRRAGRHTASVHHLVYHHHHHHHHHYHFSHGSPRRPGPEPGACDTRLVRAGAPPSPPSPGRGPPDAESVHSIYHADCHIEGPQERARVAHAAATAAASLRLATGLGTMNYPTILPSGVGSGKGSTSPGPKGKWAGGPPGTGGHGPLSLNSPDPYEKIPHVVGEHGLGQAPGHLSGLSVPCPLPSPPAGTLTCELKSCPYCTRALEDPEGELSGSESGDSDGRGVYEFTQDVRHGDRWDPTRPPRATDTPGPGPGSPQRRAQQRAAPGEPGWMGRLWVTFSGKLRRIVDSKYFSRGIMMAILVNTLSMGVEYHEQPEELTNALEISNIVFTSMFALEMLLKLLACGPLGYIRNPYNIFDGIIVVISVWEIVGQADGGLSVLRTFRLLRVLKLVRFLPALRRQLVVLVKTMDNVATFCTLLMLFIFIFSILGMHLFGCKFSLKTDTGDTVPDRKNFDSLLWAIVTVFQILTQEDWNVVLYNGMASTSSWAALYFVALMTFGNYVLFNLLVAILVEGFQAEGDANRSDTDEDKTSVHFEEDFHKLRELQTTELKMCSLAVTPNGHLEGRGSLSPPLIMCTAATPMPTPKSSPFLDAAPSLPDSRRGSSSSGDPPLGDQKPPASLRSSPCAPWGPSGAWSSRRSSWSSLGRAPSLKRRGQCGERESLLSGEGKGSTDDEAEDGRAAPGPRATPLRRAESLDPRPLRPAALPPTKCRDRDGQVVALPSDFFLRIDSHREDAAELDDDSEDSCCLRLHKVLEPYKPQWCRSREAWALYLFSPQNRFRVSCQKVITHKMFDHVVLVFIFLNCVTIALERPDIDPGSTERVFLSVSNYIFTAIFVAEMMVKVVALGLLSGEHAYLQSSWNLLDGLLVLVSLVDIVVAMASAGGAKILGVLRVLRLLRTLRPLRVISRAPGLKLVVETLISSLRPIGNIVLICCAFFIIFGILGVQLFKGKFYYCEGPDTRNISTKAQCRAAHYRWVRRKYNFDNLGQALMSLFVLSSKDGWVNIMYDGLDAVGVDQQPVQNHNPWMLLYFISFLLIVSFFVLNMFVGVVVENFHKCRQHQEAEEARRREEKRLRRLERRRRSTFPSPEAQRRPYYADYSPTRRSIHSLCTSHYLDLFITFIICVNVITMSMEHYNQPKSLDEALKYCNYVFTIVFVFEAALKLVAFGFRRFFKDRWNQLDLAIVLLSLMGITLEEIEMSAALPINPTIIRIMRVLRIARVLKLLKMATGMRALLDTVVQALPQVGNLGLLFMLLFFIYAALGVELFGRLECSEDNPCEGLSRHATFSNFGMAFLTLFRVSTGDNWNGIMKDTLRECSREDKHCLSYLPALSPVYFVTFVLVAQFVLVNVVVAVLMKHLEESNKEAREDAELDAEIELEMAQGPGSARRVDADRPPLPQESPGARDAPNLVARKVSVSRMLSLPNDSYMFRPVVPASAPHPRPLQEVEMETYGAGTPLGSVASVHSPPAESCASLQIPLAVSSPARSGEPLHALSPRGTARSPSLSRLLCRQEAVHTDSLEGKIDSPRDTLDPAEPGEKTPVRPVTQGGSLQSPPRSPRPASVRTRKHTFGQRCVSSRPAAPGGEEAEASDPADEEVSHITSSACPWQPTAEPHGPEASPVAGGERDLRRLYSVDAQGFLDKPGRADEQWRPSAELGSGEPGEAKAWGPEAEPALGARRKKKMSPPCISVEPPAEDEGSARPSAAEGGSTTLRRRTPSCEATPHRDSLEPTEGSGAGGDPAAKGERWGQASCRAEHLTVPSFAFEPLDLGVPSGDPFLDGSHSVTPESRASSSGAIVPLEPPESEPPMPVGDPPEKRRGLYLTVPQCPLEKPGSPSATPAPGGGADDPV
# [24] = target: T4, Voltage-dependent T-type calcium channel subunit alpha-1H; assay: Cav3.2 T-type channel inhibitors, synthesized analogs, SAR follow-up, cell-based, synthetic library set 2, HEK293 HH8, Fluo-4 (AID 493023); assay type: functional
# Coagulation factor XII [25] = target: T3, Coagulation factor XII; assay: FXIIa inhibitor potency, concentration-response, biochemical (AID 716); assay type: functional
# T-cell = assay: inhibitors of CD8+ T cell–vesicle binding, dose response, mouse 2C CD8+ T cells, flow cytometry (AID 485284); assay type: functional
# Cannabinoid receptor 2 [26] = target: T5, Cannabinoid receptor 2 (Homo sapiens, UniProt P34972); assay: SAR analysis of antagonists of the Cannabinoid Receptor 2 using an Image-Based Assay - Set 2. [Related pubchem assays (depositor defined):AID1961, AID1965]; assay type: functional
# T5 sequence (P34972 whole entry): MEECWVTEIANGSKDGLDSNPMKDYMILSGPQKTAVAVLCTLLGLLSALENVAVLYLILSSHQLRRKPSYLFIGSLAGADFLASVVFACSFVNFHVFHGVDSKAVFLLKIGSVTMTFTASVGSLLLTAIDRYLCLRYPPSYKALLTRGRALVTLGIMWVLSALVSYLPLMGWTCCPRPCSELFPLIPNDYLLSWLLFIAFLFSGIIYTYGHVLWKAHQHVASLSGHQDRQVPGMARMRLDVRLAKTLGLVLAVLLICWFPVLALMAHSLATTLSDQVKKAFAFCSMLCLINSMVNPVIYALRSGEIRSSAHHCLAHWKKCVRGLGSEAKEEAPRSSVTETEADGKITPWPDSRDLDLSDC
# [27] = target: G-protein coupled receptor 55 (Homo sapiens, UniProt Q9Y2T6); assay: SAR analysis of selective Agonists of GPR55 using an Image-Based Assay - Set 2. [Related pubchem assays (depositor defined):AID1961, AID1965]; assay type: functional
# Cannabinoid receptor 2 [28] = target: T5, Cannabinoid receptor 2; assay: SAR analysis of agonists of the Cannabinoid Receptor 2 using an Image-Based Assay - Set 2. [Related pubchem assays (depositor defined):AID1961, AID1965]; assay type: functional
# [29] = target: T6, G-protein coupled receptor 35 (Homo sapiens, UniProt Q9HC97); assay: SAR analysis of Agonists of the GPR35 Receptor using an Image-Based Assay - Set 3. [Related pubchem assays (depositor defined):AID1961, AID1965]; assay type: functional
# T6 sequence (Q9HC97 whole entry): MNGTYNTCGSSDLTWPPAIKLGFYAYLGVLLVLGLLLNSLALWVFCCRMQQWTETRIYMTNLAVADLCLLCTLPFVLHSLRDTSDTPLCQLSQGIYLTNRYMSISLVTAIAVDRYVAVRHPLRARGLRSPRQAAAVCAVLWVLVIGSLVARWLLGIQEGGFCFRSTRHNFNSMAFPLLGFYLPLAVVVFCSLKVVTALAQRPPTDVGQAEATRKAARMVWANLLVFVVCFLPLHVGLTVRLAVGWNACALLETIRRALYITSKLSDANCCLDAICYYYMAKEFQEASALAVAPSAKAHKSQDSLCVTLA
# Cannabinoid receptor 1 [30] = target: T7, Cannabinoid receptor 1 (Homo sapiens, UniProt P21554); assay: SAR analysis of antagonists of the Cannabinoid Receptor 1 using an Image-Based Assay - Set 3. [Related pubchem assays (depositor defined):AID1961, AID1965]; assay type: functional
# T7 sequence (P21554 whole entry): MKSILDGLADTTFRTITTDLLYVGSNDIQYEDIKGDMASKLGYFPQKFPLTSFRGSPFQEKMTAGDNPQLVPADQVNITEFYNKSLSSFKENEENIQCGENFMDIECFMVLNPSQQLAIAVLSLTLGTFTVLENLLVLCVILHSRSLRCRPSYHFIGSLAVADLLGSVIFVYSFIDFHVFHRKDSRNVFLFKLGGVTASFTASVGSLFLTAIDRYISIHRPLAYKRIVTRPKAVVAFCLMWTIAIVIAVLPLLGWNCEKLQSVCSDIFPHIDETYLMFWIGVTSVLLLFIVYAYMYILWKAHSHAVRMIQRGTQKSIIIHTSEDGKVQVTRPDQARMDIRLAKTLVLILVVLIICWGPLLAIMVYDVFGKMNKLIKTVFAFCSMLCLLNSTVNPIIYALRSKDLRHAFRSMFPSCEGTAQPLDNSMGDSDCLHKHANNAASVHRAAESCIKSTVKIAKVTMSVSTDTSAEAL
# Cannabinoid receptor 1 [31] = target: T7, Cannabinoid receptor 1; assay: SAR analysis of agonists of the Cannabinoid Receptor 1 using an Image-Based Assay - Set 3. [Related pubchem assays (depositor defined):AID1961, AID1965]; assay type: functional
# [32] = target: T6, G-protein coupled receptor 35; assay: SAR analysis of Antagonists of the GPR35 Receptor using an Image-Based Assay - Set 4. [Related pubchem assays (depositor defined):[…]]; assay type: functional
# [33] = target: T8, Runt-related transcription factor 1/Core-binding factor subunit beta (Homo sapiens, UniProt Q01196+Q13951); assay: inhibitors of RUNX1 Runt–CBFb-SMMHC binding, primary screen, biochemical, FRET, Cerulean-Runt, Venus-CBFb-SMMHC, uHTS (AID 1434); assay type: protein assay;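 also: partner is the CBFb-SMMHC leukemia fusion protein rather than wild-type CBFb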
# T8 sequence (Q01196 whole entry, the tested form may be a part): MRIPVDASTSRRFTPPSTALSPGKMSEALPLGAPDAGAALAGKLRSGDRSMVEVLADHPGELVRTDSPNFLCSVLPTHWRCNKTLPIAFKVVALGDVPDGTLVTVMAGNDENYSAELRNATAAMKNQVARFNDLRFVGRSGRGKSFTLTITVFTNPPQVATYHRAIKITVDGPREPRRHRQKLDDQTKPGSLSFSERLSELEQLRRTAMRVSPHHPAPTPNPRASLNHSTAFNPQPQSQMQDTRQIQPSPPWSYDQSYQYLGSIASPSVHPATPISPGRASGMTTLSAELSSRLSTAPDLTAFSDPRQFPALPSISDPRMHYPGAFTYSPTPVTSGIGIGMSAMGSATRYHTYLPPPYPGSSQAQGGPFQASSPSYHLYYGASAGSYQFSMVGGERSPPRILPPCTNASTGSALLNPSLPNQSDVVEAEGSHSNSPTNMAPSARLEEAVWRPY
# T8 sequence (Q13951 whole entry, the tested form may be a part): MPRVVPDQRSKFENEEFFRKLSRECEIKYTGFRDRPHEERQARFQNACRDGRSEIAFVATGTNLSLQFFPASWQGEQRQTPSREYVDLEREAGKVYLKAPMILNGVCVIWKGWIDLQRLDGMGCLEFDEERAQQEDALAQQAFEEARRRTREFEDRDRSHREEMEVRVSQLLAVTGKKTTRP
# [34] = target: T8, Runt-related transcription factor 1/Core-binding factor subunit beta; assay: inhibitors of RUNX1 Runt–CBFb-SMMHC binding, biochemical, TR-FRET (AID 1438); assay type: protein assay
# Chain of Induced myeloid leukemia cell differentiation protein Mcl-1 (Q07820 whole entry): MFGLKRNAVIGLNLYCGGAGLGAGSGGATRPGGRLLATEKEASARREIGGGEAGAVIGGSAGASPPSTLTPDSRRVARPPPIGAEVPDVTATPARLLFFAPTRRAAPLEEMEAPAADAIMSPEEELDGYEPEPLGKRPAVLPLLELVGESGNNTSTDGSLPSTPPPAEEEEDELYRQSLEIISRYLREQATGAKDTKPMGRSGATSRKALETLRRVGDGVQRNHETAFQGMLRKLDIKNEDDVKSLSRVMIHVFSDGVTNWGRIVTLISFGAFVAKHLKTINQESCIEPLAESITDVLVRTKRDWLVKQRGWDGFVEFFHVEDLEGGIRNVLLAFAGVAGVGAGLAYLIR
smiles,measurement,setting,value
O=C(O)/C(=C\c1ccc(Cl)c([N+](=O)[O-])c1)c1ccc(S(=O)(=O)N2CCCC2)s1,IC50,[1],15 µM (not active)
same,IC50,Bcl-2-like protein 1,> 109 µM (not active)
same,IC50,[2],19.4 µM (active)
same,IC50,[3],47.8 µM (active)
same,AC50,Caspase-6,3.82 µM (active)
same,AC50,Caspase-7,> 70 µM (inactive)
Cn1ncc2c(ON=C(N)c3ccc(C(C)(C)C)cc3)ncnc21,EC50,[4],> 120 µM (not active)
same,IC50,[5],2.12 µM (active)
same,EC50,BJ [6],1.32 µM (active)
same,EC50,[7],10.1 µM (active)
same,IC50,[8],1.22 µM (active)
same,EC50,[9],7.4 µM (active)
same,EC50,[10],7.91 µM (active)
same,EC50,BJ [11],5.24 µM (inconclusive)
same,EC50,BJ [12],4.91 µM (inconclusive)
same,EC50,[13],2.83 µM (active)
same,EC50,[14],> 100 µM (inactive)
same,Absolute IC50 (XBP1),X-box-binding protein 1,< 10 µM
same,EC50,BJ [15],2.92 µM (active)
same,AC50,INS1,5.03 µM (active)
O=C(CN1CCCc2ccccc21)N/N=C/c1c(O)ccc2ccccc12,EC50,[16],> 160 µM (inconclusive)
same,EC50,cells [17],60.1 µM (active)
same,EC50,[18],1.91 µM (active)
same,EC50,cells [19],> 350 µM (not active)
same,AC50,[20],1.83 µM (active)
same,IC50,[21],2.68 µM (active)
CC(C)NC(=O)c1ccccc1-c1ccccc1,IC50,Coagulation factor XII [22],> 50 µM (inactive)
CC(C)(C)CCN1C[C@@H]2[C@@H](CNC(=O)c3cc(Cl)cc(Cl)c3)[C@@H]2C1,IC50,[23],0.036 µM (active)
same,EC50,[24],0.15 µM (active)
O=C(Cc1ccc(-n2cccc2)cc1)N1CCc2ccccc21,IC50,Coagulation factor XII [25],> 50 µM (inactive)
COc1ccc(/C=C2\SC(=S)N(CCC(=O)N3CCOCC3)C2=O)cc1,EC50,T-cell,16.2 µM (active)
Cc1cccc(N2CCN(C(=O)c3cccc(S(=O)(=O)N(C)C)c3)CC2)c1C,IC50,Cannabinoid receptor 2 [26],> 32 µM (inactive)
same,EC50,[27],3.12 µM (active)
same,EC50,Cannabinoid receptor 2 [28],> 32 µM (inactive)
same,EC50,[29],> 32 µM (inactive)
same,IC50,Cannabinoid receptor 1 [30],> 32 µM (inactive)
same,EC50,Cannabinoid receptor 1 [31],> 32 µM (inactive)
same,IC50,[32],> 32 µM (inactive)
Cc1ccc(CNC(=O)NCc2ccccc2)cc1,IC50,[33],> 100 µM (inactive)
same,IC50,[34],> 100 µM (inactive)
